The record followed here is patent EP4810052A2, “HCRHR2 SELECTIVE POLYPEPTIDES” (Gubra A/S, priority 2023, dated 2026).

One test addresses T1, hCRHR2 (Homo sapiens, UniProt Q13324).
T1 sequence (Q13324 1-411): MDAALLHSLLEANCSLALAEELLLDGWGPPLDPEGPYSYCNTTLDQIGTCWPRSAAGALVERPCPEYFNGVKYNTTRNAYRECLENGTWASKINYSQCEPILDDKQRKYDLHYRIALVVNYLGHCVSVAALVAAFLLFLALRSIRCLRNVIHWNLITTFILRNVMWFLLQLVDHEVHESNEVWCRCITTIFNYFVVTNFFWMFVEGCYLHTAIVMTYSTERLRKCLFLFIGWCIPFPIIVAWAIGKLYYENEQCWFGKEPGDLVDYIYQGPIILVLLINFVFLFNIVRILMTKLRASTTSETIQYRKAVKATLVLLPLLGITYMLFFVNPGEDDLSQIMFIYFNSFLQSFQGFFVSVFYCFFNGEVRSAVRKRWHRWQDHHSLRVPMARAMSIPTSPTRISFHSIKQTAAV
In words: HTRF cAMP assay, determination of hCRHR2 potency (peptide libraries 5 conc., purified peptides 11 conc.). The class given is cell-based. In a few lines: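 EC50 derived by variable-slope sigmoid regression of FRET-based cAMP data; cellular cAMP displaced d2-labelled tracer from cryptate anti-cAMP antibody. Stable human CRHR2 CHO-K1 suspension cells, revived from frozen stocks just before the run.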

For another test, the target named is T2, hCRHR1 (Homo sapiens, UniProt P34998).
T2 sequence (P34998 24-415): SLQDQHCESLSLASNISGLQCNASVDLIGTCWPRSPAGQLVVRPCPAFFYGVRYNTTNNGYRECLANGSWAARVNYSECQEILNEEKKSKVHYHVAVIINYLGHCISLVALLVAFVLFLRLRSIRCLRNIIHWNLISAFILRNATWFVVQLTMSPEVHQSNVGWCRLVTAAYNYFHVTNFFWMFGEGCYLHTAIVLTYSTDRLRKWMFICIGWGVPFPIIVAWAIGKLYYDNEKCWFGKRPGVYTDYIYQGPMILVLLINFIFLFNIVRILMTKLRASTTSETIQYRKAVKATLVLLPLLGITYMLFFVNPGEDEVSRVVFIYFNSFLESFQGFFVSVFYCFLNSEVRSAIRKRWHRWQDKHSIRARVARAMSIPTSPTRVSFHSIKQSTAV
In words: HTRF cAMP assay, determination of hCRHR1 potency (peptide libraries 5 conc., purified peptides 11 conc.). The class given is cell-based. In a few lines:
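Cellular cAMP was read by time-resolved FRET between d2-labelled cAMP and cryptate anti-cAMP antibody. The cells were freshly thawed suspension CHO-K1 cells stably expressing human CRHR1.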
(In TR-FRET formats the signal depends on donor and acceptor labels being close together.)

Setting [1] is: Table 3, matched molecular pairs X^38 L vs Nle, peptide library of Example 4, read-out: hCRHR2 pEC50 (converted).
Where [2] appears, read: Table 3, matched molecular pairs X^38 L vs Nle, peptide library of Example 4, read-out: hCRHR1 pEC50 (converted).

Where two headings read alike, the source gives them in different places. Starred links: 1 amine or outer side, 2 acyl side, 3 side chain; linkers in the order of their positions; H or OH if unused. Non-standard residues stand in square brackets, D forms with d. Residues, ends and D or L forms follow the SMILES beside them. Groups on a side chain read outwards from the residue. *: point of attachment. C20 diacid = O=C(O)CCCCCCCCCCCCCCCCCCC(=O)*; Pro(cis-4-F) = O=C(O)[C@@H]1C[C@H](F)CN1; γGlu = O=C(O)[C@H](CCC(=O)[*:2])N[*:1]; NMeI = CC[C@H](C)[C@H](NC)C(=O)O; Nle = CCCC[C@H](N)C(=O)O; Ac5c = NC1(C(=O)O)CCCC1; AEEA = NCCOCCOCC(=O)O; Aib = CC(C)(N)C(=O)O

Turning to `CC[C@H](C)[C@H](N)C(=O)N[C@H](C(=O)N[C@@H](CC(C)C)C(=O)N[C@@H](CO)C(=O)N[C@@H](CC(C)C)C(=O)N[C@@H](CC(=O)O)C(=O)N[C@H](C(=O)N1CCC[C@H]1C(=O)N[C@H](C(=O)NCC(=O)N[C@@H](CC(C)C)C(=O)N[C@@H](CC(C)C)C(=O)N[C@@H](CCC(N)=O)C(=O)N[C@H](C(=O)N[C@@H](CC(C)C)C(=O)N[C@@H](CC(C)C)C(=O)N[C@@H](CCC(=O)O)C(=O)N[C@@H](CCC(N)=O)C(=O)N[C@@H](C)C(=O)N[C@@H](CCCNC(=N)N)C(=O)N[C@@H](C)C(=O)N[C@@H](CCC(N)=O)C(=O)N[C@@H](C)C(=O)N[C@@H](C)C(=O)N[C@@H](CCCNC(=N)N)C(=O)N[C@@H](CCC(=O)O)C(=O)N[C@@H](CCC(N)=O)C(=O)N[C@@H](C)C(=O)N[C@@H](CCCCNC(=O)COCCOCCNC(=O)COCCOCCNC(=O)CC[C@H](NC(=O)CC[C@H](NC(=O)CCCCCCCCCCCCCCCCCCC(=O)O)C(=O)O)C(=O)O)C(=O)N[C@H](C(=O)N[C@@H](CC(N)=O)C(=O)N[C@@H](C)C(=O)N[C@@H](CCC(=O)O)C(=O)N[C@H](C(=O)N[C@@H](CC(C)C)C(=O)N[C@@H](C)C(=O)N[C@@H](CCC(=O)O)C(=O)N[C@H](C(N)=O)[C@@H](C)CC)[C@@H](C)CC)[C@@H](C)O)[C@@H](C)CC)[C@@H](C)CC)C(C)C)C(C)C` [SEQ ID NO: 43] (H-IVLSLDVPIGLLQILLEQARAQAAREQAK([AEEA-AEEA-γGlu-γGlu-C20 diacid])TNAEILAEI-NH2), the values for the EC50 at hCRHR2 (setting [1]) and at hCRHR1 (setting [2]) were 0.501 nM and 63100 nM, respectively.
With `CCCC[C@H](NC(=O)[C@@H](NC(=O)[C@H](CCC(=O)O)NC(=O)[C@H](C)NC(=O)[C@H](CC(N)=O)NC(=O)[C@@H](NC(=O)[C@H](CCCCNC(=O)COCCOCCNC(=O)COCCOCCNC(=O)CC[C@H](NC(=O)CC[C@H](NC(=O)CCCCCCCCCCCCCCCCCCC(=O)O)C(=O)O)C(=O)O)NC(=O)[C@H](C)NC(=O)[C@H](CCC(N)=O)NC(=O)[C@H](CCC(=O)O)NC(=O)[C@H](CCCNC(=N)N)NC(=O)[C@H](C)NC(=O)[C@H](C)NC(=O)[C@H](CCCNC(=N)N)NC(=O)[C@H](C)NC(=O)[C@H](CCCNC(=N)N)NC(=O)[C@H](C)NC(=O)[C@H](CCC(N)=O)NC(=O)[C@H](CCC(=O)O)NC(=O)[C@H](CC(C)C)NC(=O)[C@H](CC(C)C)NC(=O)[C@@H](NC(=O)[C@H](CCC(N)=O)NC(=O)[C@H](CC(C)C)NC(=O)[C@H](CC(C)C)NC(=O)CNC(=O)[C@@H](NC(=O)[C@@H]1C[C@H](F)CN1C(=O)C1(NC(=O)[C@H](CC(=O)O)NC(=O)[C@H](CC(C)C)NC(=O)[C@H](CO)NC(=O)[C@H](CC(C)C)NC(=O)[C@@H](NC(=O)[C@@H](N)[C@@H](C)CC)C(C)C)CCCC1)[C@@H](C)CC)[C@@H](C)CC)[C@@H](C)O)[C@@H](C)CC)C(=O)N[C@@H](C)C(=O)N[C@@H](CCC(=O)O)C(=O)N[C@H](C(N)=O)C(C)C` [compound 87] (H-IVLSLD[Ac5c][Pro(cis-4-F)]IGLLQILLEQARARAAREQAK([AEEA-AEEA-γGlu-γGlu-C20 diacid])TNAEI[Nle]AEV-NH2), the EC50 on hCRHR2 (library peptides, matched molecular pairs L vs Nle in position X^38, read-out: Potency hCRHR2 pEC50 (converted)) was 0.316 nM; at hCRHR1 (library peptides, matched molecular pairs L vs Nle in position X^38, read-out: Potency hCRHR1 pEC50 (converted)), 2.51 nM.
For the compound `CC[C@H](C)[C@H](N)C(=O)N[C@H](C(=O)N[C@@H](CC(C)C)C(=O)N[C@@H](CO)C(=O)N[C@@H](CC(C)C)C(=O)N[C@@H](CC(=O)O)C(=O)N[C@H](C(=O)N1CCC[C@H]1C(=O)N[C@H](C(=O)NCC(=O)N[C@@H](CC(C)C)C(=O)N[C@@H](CC(C)C)C(=O)N[C@@H](CCC(N)=O)C(=O)N[C@H](C(=O)N[C@@H](CC(C)C)C(=O)N[C@@H](CC(C)C)C(=O)N[C@@H](CCC(=O)O)C(=O)N[C@@H](CCC(N)=O)C(=O)N[C@@H](C)C(=O)N[C@@H](CCCNC(=N)N)C(=O)N[C@@H](C)C(=O)N[C@@H](CCC(=O)O)C(=O)N[C@@H](CO)C(=O)N[C@@H](C)C(=O)N[C@@H](CCCNC(=N)N)C(=O)N[C@@H](CCC(=O)O)C(=O)N[C@@H](CCCNC(=N)N)C(=O)N[C@@H](C)C(=O)N[C@@H](CCCCNC(=O)COCCOCCNC(=O)COCCOCCNC(=O)CC[C@H](NC(=O)CC[C@H](NC(=O)CCCCCCCCCCCCCCCCCCC(=O)O)C(=O)O)C(=O)O)C(=O)N[C@H](C(=O)N[C@@H](CC(N)=O)C(=O)N[C@@H](C)C(=O)N[C@@H](CCC(=O)O)C(=O)N[C@H](C(=O)N[C@@H](CC(C)C)C(=O)N[C@@H](C)C(=O)N[C@@H](CCC(=O)O)C(=O)N[C@H](C(N)=O)[C@@H](C)CC)[C@@H](C)CC)[C@@H](C)O)[C@@H](C)CC)[C@@H](C)CC)C(C)C)C(C)C` [SEQ ID NO: 21] (H-IVLSLDVPIGLLQILLEQARAESARERAK([AEEA-AEEA-γGlu-γGlu-C20 diacid])TNAEILAEI-NH2), the EC50 at hCRHR2 (setting [1]) is 0.794 nM; on hCRHR1 (setting [2]) it was 63100 nM.
`CCCC[C@H](NC(=O)[C@@H](NC(=O)[C@H](CCC(=O)O)NC(=O)C(C)(C)NC(=O)[C@H](CC(N)=O)NC(=O)[C@@H](NC(=O)[C@H](CCCCNC(=O)COCCOCCNC(=O)COCCOCCNC(=O)CC[C@H](NC(=O)CC[C@H](NC(=O)CCCCCCCCCCCCCCCCCCC(=O)O)C(=O)O)C(=O)O)NC(=O)[C@H](C)NC(=O)[C@H](CCC(N)=O)NC(=O)[C@H](CCC(=O)O)NC(=O)[C@H](CCCNC(=N)N)NC(=O)[C@H](C)NC(=O)[C@H](C)NC(=O)[C@H](CCCNC(=N)N)NC(=O)[C@H](C)NC(=O)[C@H](CCCNC(=N)N)NC(=O)[C@H](C)NC(=O)[C@H](CCC(N)=O)NC(=O)[C@H](Cc1ccccc1)NC(=O)[C@H](CC(C)C)NC(=O)[C@H](CC(C)C)NC(=O)[C@@H](NC(=O)[C@H](CCC(N)=O)NC(=O)[C@H](CC(C)C)NC(=O)[C@H](CC(C)C)NC(=O)CNC(=O)[C@@H](NC(=O)[C@@H]1CCCN1C(=O)[C@@H](NC(=O)[C@H](CC(=O)O)NC(=O)[C@H](CC(C)C)NC(=O)[C@H](CO)NC(=O)[C@H](CC(C)C)NC(=O)[C@@H](NC(=O)[C@@H](NC)[C@@H](C)CC)C(C)C)C(C)C)[C@@H](C)CC)[C@@H](C)CC)[C@@H](C)O)[C@@H](C)CC)C(=O)N[C@@H](C)C(=O)N[C@@H](CCC(=O)O)C(=O)N[C@H](C(N)=O)C(C)C` [compound 211] (H-[NMeI]VLSLDVPIGLLQILLFQARARAAREQAK([AEEA-AEEA-γGlu-γGlu-C20 diacid])TN[Aib]EI[Nle]AEV-NH2): the EC50 on hCRHR2 (Table 4, library peptides having X^38 = Nle, read-out: hCRHR2 pEC50 (converted)) is 0.0251 nM; at hCRHR1 (Table 4, library peptides having X^38 = Nle, read-out: hCRHR1 pEC50 (converted)) it was 79400 nM.
As to `CCCC[C@H](NC(=O)[C@@H](NC(=O)[C@H](CCC(=O)O)NC(=O)[C@H](C)NC(=O)[C@H](CC(N)=O)NC(=O)[C@@H](NC(=O)[C@H](CCCCNC(=O)COCCOCCNC(=O)COCCOCCNC(=O)CC[C@H](NC(=O)CC[C@H](NC(=O)CCCCCCCCCCCCCCCCCCC(=O)O)C(=O)O)C(=O)O)NC(=O)[C@H](C)NC(=O)[C@H](CCC(=O)O)NC(=O)[C@H](CCC(=O)O)NC(=O)[C@H](CCCNC(=N)N)NC(=O)[C@H](CCC(N)=O)NC(=O)[C@H](C)NC(=O)[C@H](CCCNC(=N)N)NC(=O)[C@H](C)NC(=O)[C@H](CCCNC(=N)N)NC(=O)[C@H](C)NC(=O)[C@H](CCC(N)=O)NC(=O)[C@H](CCC(=O)O)NC(=O)[C@H](CC(C)C)NC(=O)[C@H](CC(C)C)NC(=O)[C@@H](NC(=O)[C@H](CCC(N)=O)NC(=O)[C@H](CC(C)C)NC(=O)[C@H](CC(C)C)NC(=O)CNC(=O)[C@@H](NC(=O)[C@@H]1CCCN1C(=O)[C@@H](NC(=O)[C@H](CC(=O)O)NC(=O)[C@H](CC(C)C)NC(=O)[C@H](CO)NC(=O)[C@H](CC(C)C)NC(=O)[C@@H](NC(=O)[C@@H](N)[C@@H](C)CC)C(C)C)C(C)C)[C@@H](C)CC)[C@@H](C)CC)[C@@H](C)O)[C@@H](C)CC)C(=O)N[C@@H](C)C(=O)N[C@@H](CCC(=O)O)C(=O)N[C@H](C(N)=O)C(C)C` [SEQ ID NO: 34] (H-IVLSLDVPIGLLQILLEQARARAQREEAK([AEEA-AEEA-γGlu-γGlu-C20 diacid])TNAEI[Nle]AEV-NH2), the values for the EC50 on hCRHR2 (setting [1]) and on hCRHR1 (setting [2]) were 0.251 nM and 100000 nM, respectively.
